Assay results taken from patent US7091033B2, “Array of toxicologically relevant canine genes and uses thereof” (Phase-1 Molecular Toxicology, Inc., priority 2000, dated 2006).
Like-named read-outs stand apart in the source and are kept apart here.

Experiments:
Assay type in all cases: in vivo
[1] = tested on: canine genes of the array; experiment: Canine array fold induction of canine genes in liver of canines dosed with test agents (Table 11); conditions: dog, 0.3 mg/kg, gene = c0 of the row
Excerpt: (§1) Table 11 depicts the fold induction for canine genes in a canine array.

[2] = tested on: Cytochrome P450 2B (gene expression); experiment: Canine array fold induction of canine genes in kidney of dogs dosed with an agent (Table 11); conditions: dog, kidney, 0.3 mg/kg, canine kidney, 10 days
Excerpt: as §1

[3] = tested on: Cytochrome P450 2C41 (gene expression); experiment: as above; conditions: dog, kidney, 0.3 mg/kg, canine kidney, 10 days
Excerpt: as §1

[4] = tested on: Cytochrome P450 2D (gene expression); experiment: as above; conditions: dog, kidney, 0.3 mg/kg, canine kidney, 10 days
Excerpt: as §1

[5] = tested on: canine genes in a canine array (Canine kidney); experiment: as above; conditions: canine kidney, 0.3 mg/kg, 10 days; for fold induction at 0.3 mg/kg: Canis lupus familiaris, 240 h
Excerpt: as §1

[6] = tested on: canine genes of the array; experiment: Canine array fold induction of canine genes in kidney of canines dosed with test agents (Table 11); conditions: dog, 0.3 mg/kg, 10 days, gene = c0 of the row
Excerpt: as §1

C[C@]12CC[C@@H]3c4ccc(O)cc4CC[C@H]3[C@@H]1CC[C@@H]2O [Estradiol]
fold induction at 10 days ([1]; 0.3 mg/kg, 10196, Canine Liver, 10 days): 1 | fold induction at 10 days ([1]; 0.3 mg/kg, 10316, Canine liver, 10 day): 1.2 | fold induction at 10 days [2]: 1.2 | fold induction at 10 days [3]: 1.7 | fold induction at 10 days [4]: 1.2 | fold induction at 0.3 mg/kg ([5]; read-out: Alkaline phosphatase fold induction): 1.4 | fold induction at 0.3 mg/kg ([5]; read-out: Angiopoietin-related protein 3 (ANGPTL3) fold induction): 1.1 | fold induction at 0.3 mg/kg ([5]; read-out: BRCA1 fold induction): 1.1 | fold induction at 0.3 mg/kg ([5]; read-out: Beta-glucuronidase fold induction): 1.3 | fold induction at 0.3 mg/kg ([5]; read-out: CD40 ligand fold induction): 1.1 | fold induction at 0.3 mg/kg ([5]; read-out: Catalase fold induction): 1.2 | fold induction at 0.3 mg/kg ([5]; read-out: Caveolin-1 fold induction): 1.4 | fold induction at 0.3 mg/kg ([5]; read-out: Caveolin-2 fold induction): 1.7 | fold induction at 0.3 mg/kg ([5]; read-out: Cubilin fold induction): 1.1 | fold induction at 0.3 mg/kg ([5]; read-out: Cytochrome c oxidase subunit VIIaL fold induction): 1 | fold induction at 0.3 mg/kg ([5]; read-out: c-erb B-2 fold induction): 1.3 | Alkaline phosphatase fold induction [5]: 1.6 | Caveolin-2 fold induction [5]: 1.6 | fold induction at 10 days ([6]; 0.3 mg/kg, 10087, canine kidney): 1.6 | fold induction at 10 days ([6]; 0.3 mg/kg, 10089, canine kidney): 1
